Results reported in patent US10314308B2, “Microbiocidal benzoxaboroles” (SYNGENTA PARTICIPATIONS AG, priority 2015, dated 2019).

Tests used:
[1] = tested on: Mycosphaerella Graminicola(Septoria Tritici); assay: Mycosphaerella graminicola (Septoria tritici) / liquid culture (Septoria blotch); format: cell-based; details: Zymoseptoria tritici, PDB potato dextrose broth, 24° C., 4-5 days after application, read-out: disease control (inhibition of growth, photometrically)
Description: 12 Mycosphaerella Graminicola(Septoria Tritici)/Liquid Culture (Septoria Blotch) Conidia of the fungus from cryogenic storage were directly mixed into nutrient broth (PDB potato dextrose broth). After placing a DMSO solution of test compound into a 96-well microtiter plate, the nutrient broth containing the fungal spores was added. The test plates were incubated at 24° C. and the inhibition of growth was determined photometrically 4-5 days after application.

Gaeumannomyces Graminis = assay: Gaeumannomyces graminis / liquid culture (take-all of cereals); format: cell-based; details: PDB potato dextrose broth, 24° C., 4-5 days after application, read-out: disease control (inhibition of growth, photometrically)
Description: 13 Gaeumannomyces Graminis/Liquid Culture (Take-all of Cereals) Mycelial fragments of the fungus from cryogenic storage were directly mixed into nutrient broth (PDB potato dextrose broth). After placing a DMSO solution of test compound into a 96-well microtiter plate, the nutrient broth containing the fungal spores is added. The test plates were incubated at 24° C. and the inhibition of growth was determined photometrically 4-5 days after application.

Pythium Ultimum = assay: Pythium ultimum / liquid culture (seedling damping off); format: cell-based; details: Globisporangium ultimum, potato dextrose broth, 24° C., 2-3 days after application, read-out: disease control (inhibition of growth, photometrically)
[2] = tested on: Monographella Nivalis(Microdochium Nivale); assay: Monographella nivalis (Microdochium nivale) / liquid culture (foot rot cereals); format: cell-based; details: PDB potato dextrose broth, 24° C., 4-5 days after application, read-out: disease control (inhibition of growth, photometrically)
Description: 14 Monographella Nivalis(Microdochium Nivale)/Liquid Culture (Foot Rot Cereals) Conidia of the fungus from cryogenic storage were directly mixed into nutrient broth (PDB potato dextrose broth). After placing a DMSO solution of test compound into a 96-well microtiter plate, the nutrient broth containing the fungal spores was added. The test plates were incubated at 24° C. and the inhibition of growth was determined photometrically 4-5 days after application.

[3] = tested on: Glomerella Lagenarium(Colletotrichum Ladenarium); assay: Glomerella lagenarium (Colletotrichum lagenarium) / liquid culture (anthracnose); format: cell-based; details: PDB potato dextrose broth, 24° C., 3-4 days after application, read-out: disease control (inhibition of growth, photometrically)
Description: 10 Glomerella Lagenarium(Colletotrichum Ladenarium)/Liquid Culture (Anthracnose) Conidia of the fungus from cryogenic storage were directly mixed into nutrient broth (PDB potato dextrose broth). After placing a DMSO solution of test compound into a 96-well microtiter plate, the nutrient broth containing the fungal spores was added. The test plates were incubated at 24° C. and the inhibition of growth was measured photometrically 3-4 days after application.

[4] = tested on: Mycosphaerella Arachidis(Cercospora Arachidicola); assay: Mycosphaerella arachidis (Cercospora arachidicola) / liquid culture (early leaf spot); format: cell-based; details: PDB potato dextrose broth, 24° C., 4-5 days after application, read-out: disease control (inhibition of growth, photometrically)
Description: 11 Mycosphaerella Arachidis(Cercospora Arachidicola)/Liquid Culture (Early Leaf Spot) Conidia of the fungus from cryogenic storage were directly mixed into nutrient broth (PDB potato dextrose broth). After placing a DMSO solution of test compound into a 96-well microtiter plate, the nutrient broth containing the fungal spores was added. The test plates were incubated at 24° C. and the inhibition of growth was determined photometrically 4-5 days after application.

Plasmopara Viticola = assay: whole plant or invertebrate; format: in vivo; details: foliar, read-out: disease control
Fusarium Culmorum = assay: microbe, parasite or virus in culture; format: cell-based; details: read-out: disease control (inhibition of growth, photometrically)
Sclerotinia Sclerotiorum = assay: Sclerotinia sclerotiorum / liquid culture (cottony rot); format: cell-based; details: PDB potato dextrose broth, 24° C., 3-4 days after application, read-out: disease control (inhibition of growth, visually)
Description: 17 Sclerotinia Sclerotiorum/Liquid Culture (Cottony Rot) Mycelia fragments of a newly grown liquid culture of the fungus were directly mixed into nutrient broth (PDB potato dextrose broth). After placing a (DMSO) solution of the test compounds into a microtiter plate (96-well format) the nutrient broth containing the fungal material was added. The test plates were incubated at 24° C. and the inhibition of growth was determined visually 3-4 days after application.

CON=Cc1ccc(-c2cc3c(cc2Cl)COB3O)o1 (racemic) [Compound 23, 1-[5-(5-chloro-1-hydroxy-3H-2,1-benzoxaborol-6-yl)-2-furyl]-N-methoxy-methanimine]
≥ 80%: inhibition at 20 ppm [1] | inhibition at 20 ppm (Gaeumannomyces Graminis) | inhibition at 20 ppm (Pythium Ultimum) | inhibition at 20 ppm [2] | inhibition at 20 ppm [3] | inhibition at 20 ppm [4]

OB1OCc2cc(Cl)c(-c3ccncc3)cc21 [Compound 7]
≥ 80%: pest or weed control at 200 ppm (Plasmopara Viticola) | inhibition at 20 ppm (Pythium Ultimum)

Cn1nccc1-c1cc2c(cc1Cl)COB2O [Compound 9]
≥ 80%: pest or weed control at 200 ppm (Plasmopara Viticola) | inhibition at 20 ppm (Pythium Ultimum)

OB1OCc2cc(Cl)c(-c3cncnc3O)cc21 [Compound 19]
≥ 80%: inhibition at 20 ppm (Pythium Ultimum)

CSc1ncc(-c2cc3c(cc2Cl)COB3O)c(C)n1 [Compound 20]
≥ 80%: inhibition at 20 ppm (Pythium Ultimum) | inhibition at 20 ppm (Fusarium Culmorum) | inhibition at 20 ppm [2]

Cc1nc(Nc2ccccc2)nc(C2CC2)c1-c1cc2c(cc1Cl)COB2O [Compound 24]
≥ 80%: inhibition at 20 ppm [2]

O=Cc1csc(-c2cc3c(cc2Cl)COB3O)c1 [Compound 34]
≥ 80%: inhibition at 20 ppm [1] | inhibition at 20 ppm (Gaeumannomyces Graminis) | inhibition at 20 ppm (Pythium Ultimum) | inhibition at 20 ppm (Fusarium Culmorum) | inhibition at 20 ppm [2] | inhibition at 20 ppm [3] | inhibition at 20 ppm [4]

OB1OCc2cc(Cl)c(-c3cc4ccccc4o3)cc21 [Compound 37]
≥ 80%: inhibition at 20 ppm (Gaeumannomyces Graminis) | pest or weed control at 200 ppm (Plasmopara Viticola) | inhibition at 20 ppm [2] | inhibition at 20 ppm [3]

N#Cc1ccc(-c2cc3c(cc2Cl)COB3O)o1 [Compound 41]
≥ 80%: inhibition at 20 ppm [1] | inhibition at 20 ppm (Gaeumannomyces Graminis) | pest or weed control at 200 ppm (Plasmopara Viticola) | inhibition at 20 ppm (Pythium Ultimum) | inhibition at 20 ppm [2] | inhibition at 20 ppm [3]

N#Cc1csc(-c2cc3c(cc2Cl)COB3O)c1 [Compound 43]
≥ 80%: inhibition at 20 ppm (Gaeumannomyces Graminis) | pest or weed control at 200 ppm (Plasmopara Viticola) | inhibition at 20 ppm (Pythium Ultimum) | inhibition at 20 ppm [2] | inhibition at 20 ppm [3]

OB1OCc2cc(Cl)c(-c3cc(Br)cs3)cc21 [Compound 46]
≥ 80%: inhibition at 20 ppm [1] | inhibition at 20 ppm (Gaeumannomyces Graminis) | inhibition at 20 ppm (Pythium Ultimum) | inhibition at 20 ppm [2] | inhibition at 20 ppm [3]

OB1OCc2cc(Cl)c(-c3cc4ccccc4s3)cc21 [Compound 47]
≥ 80%: inhibition at 20 ppm [1] | inhibition at 20 ppm (Gaeumannomyces Graminis) | pest or weed control at 200 ppm (Plasmopara Viticola) | inhibition at 20 ppm (Pythium Ultimum) | inhibition at 20 ppm [2] | inhibition at 20 ppm [4]

Cn1nc(-c2cc3c(cc2F)COB3O)c2ccccc21 [Compound 48]
≥ 80%: inhibition at 20 ppm (Gaeumannomyces Graminis) | pest or weed control at 200 ppm (Plasmopara Viticola) | inhibition at 20 ppm (Pythium Ultimum) | inhibition at 20 ppm [2]

Cc1cscc1-c1cc2c(cc1Cl)COB2O [Compound 53]
≥ 80%: inhibition at 20 ppm (Gaeumannomyces Graminis) | inhibition at 20 ppm (Pythium Ultimum) | inhibition at 20 ppm [2] | inhibition at 20 ppm [3] | inhibition at 20 ppm [4]

Cc1nn(C)c(C)c1-c1cc2c(cc1F)COB2O [Compound 55]
≥ 80%: pest or weed control at 200 ppm (Plasmopara Viticola) | inhibition at 20 ppm (Pythium Ultimum)

COc1ncc(-c2cc3c(cc2F)COB3O)c(OC)n1 [Compound 58]
≥ 80%: inhibition at 20 ppm (Pythium Ultimum) | inhibition at 20 ppm [2]

OB1OCc2cc(F)c(-c3ccc(N4CCOCC4)nc3)cc21 [Compound 59]
≥ 80%: inhibition at 20 ppm (Pythium Ultimum)

CCn1cc(-c2cc3c(cc2F)COB3O)cn1 [Compound 60]
≥ 80%: inhibition at 20 ppm (Gaeumannomyces Graminis) | pest or weed control at 200 ppm (Plasmopara Viticola) | inhibition at 20 ppm (Pythium Ultimum) | inhibition at 20 ppm [2] | inhibition at 20 ppm [3] | inhibition at 20 ppm [4]

OB1OCc2cc(F)c(-c3cc4ccccc4[nH]3)cc21 [Compound 61]
≥ 80%: inhibition at 20 ppm [1] | inhibition at 20 ppm (Gaeumannomyces Graminis) | pest or weed control at 200 ppm (Plasmopara Viticola) | inhibition at 20 ppm (Pythium Ultimum) | inhibition at 20 ppm (Sclerotinia Sclerotiorum) | inhibition at 20 ppm [2] | inhibition at 20 ppm [4]

CCOc1ccc(-c2cc3c(cc2F)COB3O)cn1 [Compound 64]
≥ 80%: pest or weed control at 200 ppm (Plasmopara Viticola) | inhibition at 20 ppm (Pythium Ultimum) | inhibition at 20 ppm [2]

COc1ncc(-c2cc3c(cc2Cl)COB3O)c(OC)n1 [Compound 69]
≥ 80%: inhibition at 20 ppm (Pythium Ultimum)

OB1OCc2cc(Cl)c(-c3ccc(N4CCOCC4)nc3)cc21 [Compound 70]
≥ 80%: inhibition at 20 ppm [1] | inhibition at 20 ppm (Pythium Ultimum) | inhibition at 20 ppm [2] | inhibition at 20 ppm [4]

CCn1cc(-c2cc3c(cc2Cl)COB3O)cn1 [Compound 71]
≥ 80%: pest or weed control at 200 ppm (Plasmopara Viticola) | inhibition at 20 ppm (Pythium Ultimum) | inhibition at 20 ppm [2] | inhibition at 20 ppm [4]

COc1ccc(-c2cc3c(cc2F)COB3O)cn1 [Compound 76]
≥ 80%: inhibition at 20 ppm (Pythium Ultimum) | inhibition at 20 ppm [2]

Cn1cc(-c2cc3c(cc2F)COB3O)cn1 [Compound 77]
≥ 80%: inhibition at 20 ppm (Gaeumannomyces Graminis) | inhibition at 20 ppm (Pythium Ultimum) | inhibition at 20 ppm [4]

OB1OCc2cc(F)c(-c3cnccc3C(F)(F)F)cc21 [Compound 78]
≥ 80%: pest or weed control at 200 ppm (Plasmopara Viticola) | inhibition at 20 ppm (Pythium Ultimum)

Cc1cc(-c2cc3c(cc2F)COB3O)c(C)s1 [Compound 80]
≥ 80%: inhibition at 20 ppm (Pythium Ultimum) | inhibition at 20 ppm [2] | inhibition at 20 ppm [3] | inhibition at 20 ppm [4]

OB1OCc2cc(F)c(-c3cncc(C(F)(F)F)c3)cc21 [Compound 82]
≥ 80%: inhibition at 20 ppm [1] | inhibition at 20 ppm (Gaeumannomyces Graminis) | inhibition at 20 ppm (Pythium Ultimum) | inhibition at 20 ppm (Sclerotinia Sclerotiorum) | inhibition at 20 ppm [2] | inhibition at 20 ppm [3] | inhibition at 20 ppm [4]

COc1ccc(-c2cc3c(cc2Cl)COB3O)cn1 [Compound 85]
≥ 80%: inhibition at 20 ppm (Pythium Ultimum) | inhibition at 20 ppm [2]

Cn1cc(-c2cc3c(cc2Cl)COB3O)cn1 [Compound 86]
≥ 80%: inhibition at 20 ppm (Gaeumannomyces Graminis) | inhibition at 20 ppm (Pythium Ultimum) | inhibition at 20 ppm [2] | inhibition at 20 ppm [4]

OB1OCc2cc(Cl)c(-c3cnccc3C(F)(F)F)cc21 [Compound 87]
≥ 80%: pest or weed control at 200 ppm (Plasmopara Viticola) | inhibition at 20 ppm (Pythium Ultimum) | inhibition at 20 ppm [2]

OB1OCc2cc(Cl)c(-c3ccncc3Cl)cc21 [Compound 89]
≥ 80%: inhibition at 20 ppm [1] | pest or weed control at 200 ppm (Plasmopara Viticola) | inhibition at 20 ppm (Pythium Ultimum) | inhibition at 20 ppm [2] | inhibition at 20 ppm [3] | inhibition at 20 ppm [4]
